The nature of series [1]: Stability of MRS2365 incubated in phosphate-buffered saline. It counts as physicochemical.
Series [2] in a line: In vitro stability and metabolite scouting of MRS2365 in human whole blood. It counts as in vitro ADME. The conditions noted are these: 100 μM in human whole blood, lithium heparin as anti-coagulant. How it is done: Whole blood was obtained from male CD-1 mice and human volunteers at Seventh Wave Laboratories (Maryland Heights, MO). Plasma and blood samples were prepared using either EDTA (1 mM) or lithium heparin as anticoagulants.
Blood sample aliquots were obtained at 0, 1, 2.5, 7.5, 10 and 30 minutes and placed in microtainer tubes. For metabolite scouting analyses, MRS2365 was incubated in heparinized human whole blood at a concentration of 100 μM for 10 or 30 minutes (FIG. 10). In all studies, plasma was immediately prepared by centrifugation at 4° C., placed in microtainer tubes, frozen on dry ice and stored at −80° C. until analysis. […]
Plasma and blood samples were also qualitatively analyzed for MRS2365 metabolites utilizing a LC-MS/MS-based “metabolite scouting” protocol. […] Blood and plasma samples were analyzed by both positive- and negative-ion LC/MS-MS for parent compound and metabolites as it was anticipated that the phosphorylated compounds would preferentially generate negative ions while the riboside MRS4322 would preferentially generate positive ions. In positive-ion mode, extracted ion chromatograms monitored masses in the range of 323.7-324.7 and 403.7-404.7 to scout for MRS4322 and MRS2347, respectively. Any ion peaks in these ranges were further analyzed to generate product ion spectra for these ion chromatogram peaks. […]

Series [3] has as its system photothrombosis-induced stroke infarctions. The series is described as follows: Photothrombosis-induced stroke in mice, TTC-stained brain infarction size. It counts as in vivo. The conditions noted are these: for size of the brain infarction (TTC staining): 24 hours after stroke, versus vehicle; for size of brain infarctions in mice pretreated with the A3 receptor antagonist MRS1523: MRS1523 2 mg/kg i.p. at 0 and 2 hours, treatment within 30 minutes of clot formation, 24 hours. How it is done:
Photothrombosis-induced Stroke: Photothrombosis was performed as described in Zheng et al 2010 (PloS One 5 (12): e14401). In brief, Rose Bengal is a fluorescent dye that when injected into the vasculature and excited, generates singlet oxygen that damages the endothelial wall and induces a local thrombosis (clot). Using this technique, mice were given a 0.1 mL tail-vein injection of sterilized Rose Bengal (RB, Sigma, U.S.A.) in artificial cerebral spinal fluid (aCSF). The RB concentration was 20 mg/mL. A cortical region was centered in the imaging field and illuminated with a green laser (543 nm, 5 mW) using a 0.8-NA 40× water-immersion objective (Nikon, Tokyo). The clot formation was monitored in real time until the targeted vessel or downstream capillaries were firmly occluded. Stable clots were subsequently identified by a non-fluorescent vessel segmentation ending with highly fluorescent regions. […] Treatments, MRS4322 (0.16 mg/kg; 0.5 μmol/kg) or MRS2365 (0.24 mg/kg; 0.5 μmol/kg) were introduced via intraperitoneal injections (i.p.). […] Animals and Photothrombosis-induced Stroke: Stroke was performed as described in Zheng et al 2010 (PloS One 5 (12): e14401). Female C57Bl/6 mice (4-6 months) were used in this study. From the methods of this manuscript: Mice were anesthetized at 3% isoflurane with 100% oxygen and subsequently maintained at 1% isoflurane through a nosecone. Depth of anesthesia was monitored and regulated according to vital signs, pinch withdrawal and eye blinks. Body temperature was maintained at 37° C. by a feedback-controlled heating pad (Gaymar T/Pump). Vital signs including oxygen saturation, respiratory rate, and heart rate were continuously monitored by using the MouseOx system (STARR Life Sciences). The hair on each mouse's head was trimmed and a small incision was made in the scalp to expose the skull. A custom-made stainless steel plate was glued to the skull with VetBond Tissue Adhesive (3M, St Paul, MN). A cranial thinned-skull imaging window was created over the right primary somatosensory cortex (˜1.5 mm posterior to Bregma and 2 mm lateral from midline) depending on the experiment. In brief, a large region of the skull was first thinned with the electric drill and then further thinned with a surgical blade. The final thickness of the thinned skull was approximately 50 μm. After the cranial imaging window was created, mice were transferred to microscope stage and used for photothrombosis or imaging experiments. For the repeat imaging experiments, the plate was carefully detached from the skull and the scalp was sutured (Ethicon 6-0 sild suture). After each experiment, the mice were either returned to cages until the next timepoint or sacrificed. All procedures were approved by the Institutional Animal Care and Use Committee (IACUC) at University of Texas Health Science Center at San Antonio. Thirty minutes following stroke or sham (uninjured), mice were treated with either vehicle (saline) or drugs (MRS4322, MRS2365, MRS5698 or Cl-IBMECA). Post photothrombotic infarction evaluation. The size of cerebral infarcts was evaluated using 2,3,5-Triphenyltetrazolium chloride (TTC) staining as described in Zheng et al 2010 (PloS One 5 (12): e14401). In brief, RB-induced lesions in brain slices were stained with TTC. TTC is a colorless dye that stains healthy brain tissue red when reduced by the mitochondrial enzyme succinyl dehydrogenase (Bederson J B et al., 1986). The absence of staining in necrotic tissue is then used to define the area of a brain infarction. Mice were sacrificed by cervical dislocation, their brains removed and then placed in ice cold HBSS for 3 minutes. […] The sections were fixed in 10% buffered formaldehyde solution overnight at 4° C. Slices were imaged on a flatbed scanner (HP scanjet 8300) for analysis of the lesion size at 1200 dpi. Photothrombosis-induced Stroke: Photothrombosis was performed as described in Zheng et al. 2010 (PloS One 5 (12): e14401). […]

The mark [4] stands for this setting: Example 6: mice, 0.5 μmol/kg i.p. within 30 minutes of clot formation.

Entries after “also recorded” stand apart in the source; their conditions may differ.

Take `CSc1nc(N)c2ncn([C@H]3[C@H](O)[C@H](O)[C@]4(COP(=O)(O)OP(=O)(O)O)C[C@H]34)c2n1` [MRS2365]: in series [1], the “stability in phosphate-buffered saline” value is on record as “completely stable”. In addition, in series [2], the “metabolites observed (M2 = MRS2347, M1 = MRS4322)” value was “Two metabolites”. The “size of the brain infarction (TTC staining)” value in series [3] (setting [4]) is “significantly reduced”. Moreover, in series [3], the “size of brain infarctions in mice pretreated with the A3 receptor antagonist MRS1523” value is on record as “not reduced”.
In the case of `CSc1nc(N)c2ncn([C@H]3[C@H](O)[C@H](O)[C@]4(CO)C[C@H]34)c2n1` [MRS4322], the “size of the brain infarction (TTC staining)” value was “significantly reduced” in series [3] (setting [4]) and “significantly reduced” in series [3] (Example 7: mice, 100 ul of 100 uM i.p. within 30 minutes of clot formation). Besides, the “size of brain infarctions in mice pretreated with the A3 receptor antagonist MRS1523” value in series [3] is given as “reversed by MRS1523; also recorded: not reduced”. In series [3] (summary statement), the “efficacy in the mouse photothrombotic stroke model” value is given as “significant efficacy”.

For the origin of these results see patent US12390483B2, “Compounds and methods for treating neurological and cardiovascular conditions” (Astrocyte Pharmaceuticals, Inc., priority 2016, dated 2025).
